{"source": "patent US20190231841A1", "about": "“CENCHRUS CILIARIS L. AS AN ANTICANCER AGENT” (KING SAUD UNIVERSITY, priority 2018, published 2019)", "assay_type_in_all_cases": "cell-based", "key": {"[1]": {"system": "A-549 (Lung carcinoma)", "test": "MTT cytotoxicity assay, A-549", "conditions": "Homo sapiens, A549, 24 h, 24 h incubation", "method": "(§1) The cell lines A-549 (Lung carcinoma), CACO (Colorectal carcinoma), HCT-116 (Colon carcinoma), Hela (Cervical carcinoma), HepG-2 (Hepatocellular carcinoma), and MCF-7 (Breast carcinoma) were obtained from the Regional Center for Mycology and Biotechnology, Al-Azhar University, Cairo, Egypt.\n(§2) The antitumor assay was carried out on the above cell lines as published by A Ooi et al., ‘A Guide to Transient Expression of Membrane Proteins in HEK-293 Cells for Functional Characterization”, Front. Physiol. 7:300, published online 19 Jul. 2016, for all of the extracts which have been obtained in section above (A, R, AL, APC, RPC, APB, RPB, AR &RR). Briefly, the cell lines were suspended in medium at a concentration of 5×10^4 cell/well in Corning® 96-well tissue culture plates and then incubated for 24 hr. The tested extracts were then added into 96-well plates (six replicates) to achieve seven concentrations for each extract. […] After incubation for 24 h, the numbers of viable cells were determined by the MTT assay method. […] Then, the optical density was measured at 590 nm with the microplate reader to determine the number of viable cells. The percentage of viability was calculated as: (ODt/ODc)×100%, where ODt is the mean optical density of wells treated with the tested sample and ODc is the mean optical density of untreated cells. […]"}, "[2]": {"system": "CACO (Colorectal carcinoma)", "test": "MTT cytotoxicity assay, CACO", "conditions": "24 h incubation", "method": "as §1, §2"}, "[3]": {"system": "HCT-116 (Colon carcinoma)", "test": "MTT cytotoxicity assay, HCT-116", "conditions": "Homo sapiens, 24 h incubation", "method": "as §1, §2"}, "[4]": {"system": "HepG-2 (Hepatocellular carcinoma)", "test": "MTT cytotoxicity assay, HepG-2", "conditions": "Homo sapiens, HepG2, 24 h incubation", "method": "as §1, §2"}, "[5]": {"system": "MCF-7 (Breast carcinoma)", "test": "MTT cytotoxicity assay, MCF-7", "conditions": "Homo sapiens, MCF7, 24 h incubation", "method": "as §1, §2"}}, "note": "Counter-ions that a name gives are not always drawn.", "data": [{"smiles": "CC[C@]1(O)C[C@@H]2CN(CCc3c([nH]c4ccccc34)[C@@](C(=O)OC)(c3cc4c(cc3OC)N(C)[C@H]3[C@@](O)(C(=O)OC)[C@H](OC(C)=O)[C@]5(CC)C=CCN6CC[C@]43[C@@H]65)C2)C1", "note": "[Vinblastine sulfate]", "values": [{"measurement": "IC50", "setting": "[1]", "result": "30.3 ± 1.4", "unit": "mg/L"}, {"measurement": "IC50", "setting": "[2]; 24 h", "result": "24.6 ± 0.7", "unit": "mg/L"}, {"measurement": "IC50 CACO (Colorectal carcinoma)", "setting": "[2]", "result": "30.3 ± 1.4", "unit": "mg/L"}, {"measurement": "IC50", "setting": "[3]", "result": "3.5 ± 0.2", "unit": "mg/L"}, {"measurement": "IC50", "setting": "[4]", "result": "2.93 ± 0.3", "unit": "mg/L"}, {"measurement": "IC50", "setting": "[5]", "result": "5.9 ± 0.4", "unit": "mg/L"}]}]}
